Assay results taken from the supplement of paper PMC8967900.

Assays:
Experiment in all cases: selective drug sensitivity score (sDSS, relative to normal bone marrow) (sDSS (score)); higher = more potent and effective on the cell line relative to normal bone marrow cells
Conditions in all cases: 72 h
ALL-PO = tested on: ALL-PO
CCRF-HSB2 = tested on: CCRF-HSB2
COG-LL-319h = tested on: COG-LL-319h
COG-LL-332h = tested on: COG-LL-332h
COG-LL-355h = tested on: COG-LL-355h
COG-LL-394h = tested on: COG-LL-394h
DND-41 = tested on: DND-41
KARPAS-45 = tested on: KARPAS-45
KASUMI-10 = tested on: KASUMI-10
KASUMI-2 = tested on: KASUMI-2
LC4-1 = tested on: LC4-1
MHH-CALL-4 = tested on: MHH-CALL-4
MN-60 = tested on: MN-60
MOLT-4 = tested on: MOLT-4
P12-ICHIKAWA = tested on: P12-ICHIKAWA
P30-OHKUBO = tested on: P30-OHKUBO
PEER = tested on: PEER
PF-382 = tested on: PF-382
RCH-ACV = tested on: RCH-ACV
TMD5 = tested on: TMD5
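Note: ALL cell lines in 384-well plates, five doses spanning 10,000-fold, each plate scaled between vehicle and 100 µmol/L benzalkonium chloride controls, sDSS an adapted area-under-curve metric.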

SMILES | selective drug sensitivity score (ALL-PO) | selective drug sensitivity score (CCRF-HSB2) | selective drug sensitivity score (COG-LL-319h) | selective drug sensitivity score (COG-LL-332h) | selective drug sensitivity score (COG-LL-355h) | selective drug sensitivity score (COG-LL-394h) | selective drug sensitivity score (DND-41) | selective drug sensitivity score (KARPAS-45) | selective drug sensitivity score (KASUMI-10) | selective drug sensitivity score (KASUMI-2) | selective drug sensitivity score (LC4-1) | selective drug sensitivity score (MHH-CALL-4) | selective drug sensitivity score (MN-60) | selective drug sensitivity score (MOLT-4) | selective drug sensitivity score (P12-ICHIKAWA) | selective drug sensitivity score (P30-OHKUBO) | selective drug sensitivity score (PEER) | selective drug sensitivity score (PF-382) | selective drug sensitivity score (RCH-ACV) | selective drug sensitivity score (TMD5)
Cn1nnc2c(C(N)=O)ncn2c1=O [Temozolomide] (top concentration 100000 nM) | -0.04 | 2.06 | -0.04 | -0.04 | -0.04 | -0.04 | -0.04 | 5.76 | -0.04 | -0.04 | -0.04 | -0.04 | -0.04 | 1.86 | 4.96 | 3.36 | -0.04 | 3.16 | 6.66 | -0.04
CN1CCC(COc2cnc(-c3cccc(Cn4nc(-c5cccc(C#N)c5)ccc4=O)c3)nc2)CC1 [Tepotinib] (top concentration 1000 nM) | -0.08 | 0.02 | 2.22 | -0.08 | -0.08 | -0.08 | -0.08 | -0.08 | -0.08 | 2.02 | 4.62 | -0.08 | -0.08 | -0.08 | -0.08 | -0.08 | 0.02 | -0.08 | 0.42 | -0.08
NC(=S)N/N=C/c1ncccc1N [Triapine] (top concentration 10000 nM) | 2.28 | 8.48 | 10.6 | 2.78 | 1.08 | 0.88 | 7.38 | -0.12 | 6.88 | 2.38 | 1.78 | 2.18 | 1.48 | 1.98 | 5.18 | 2.88 | 2.08 | 1.28 | 7.38 | 2.28
NC(=O)c1cccc(-c2cccc(OC(=O)NC3CCCCC3)c2)c1 [URB597] (top concentration 1000 nM) | -0.46 | -0.46 | 5.14 | -0.46 | -0.06 | -0.46 | -0.26 | -0.46 | -0.46 | -0.46 | 0.44 | -0.46 | -0.46 | -0.46 | -0.46 | -0.46 | -0.46 | -0.46 | -0.46 | -0.46
COc1cc2/c(=N/c3ccc(Br)cc3F)nc[nH]c2cc1OCC1CCN(C)CC1 [Vandetanib] (top concentration 1000 nM) | -0.22 | 11.6 | -0.22 | 0.28 | -0.22 | -0.22 | -0.22 | 0.68 | -0.22 | -0.22 | -0.22 | -0.22 | -0.22 | -0.22 | -0.22 | 0.38 | 1.38 | 0.48 | -0.22 | 5.38
COc1cccc(-c2ccc(NC(=O)C3=C(C(=O)O)CCC3)c(F)c2)c1 [Vidofludimus] (top concentration 10000 nM) | 2.6 | 4 | 6.9 | 4.9 | 0 | 0 | 5.3 | 3.9 | 0.5 | 6.2 | 6.1 | 2.8 | 12.3 | 3.6 | 6.5 | 3 | 5.1 | 4.8 | 8.8 | 0
CC[C@]12C=CCN3CC[C@@]4(c5cc([C@@]6(C(=O)OC)C[C@@H]7C[C@@H](C(C)(F)F)CN(Cc8c6[nH]c6ccccc86)C7)c(OC)cc5N(C)[C@H]4[C@@](O)(C(=O)OC)[C@@H]1OC(C)=O)[C@@H]32 [Vinflunine] (top concentration 1000 nM) | 1.68 | 4.48 | 2.98 | 3.78 | 2.68 | 2.38 | 0.18 | 4.48 | 4.08 | 5.68 | 4.48 | 0.58 | 0.58 | 3.48 | 3.98 | 3.68 | 5.08 | 2.68 | 3.98 | 0.28
